# Experimental data from US8530459B2, “Swallowtail motifs for imparting water solubility to porphyrinic compounds” (North Carolina State University, priority 2005, dated 2013).
# Key:
# Type in all cases: physicochemical
# [1] = Stability of porphyrin-phosphate in protic solvent monitored by 1H NMR and LD-MS; conditions: mixture of CDCl3/CD3OD
# Source text: Porphyrin 12a contains both the bioconjugatable site and the water-solubilizing groups, masked by tert-butyl and methyl esters, respectively. Attempts at the simultaneous removal of the tert-butyl and methyl ester protecting groups with TMS-Br were unsuccessful. […] This compound is identical to 15b (vide infra). […] The following observations were made: • (1) The crude porphyrin-phosphates, while displaying excellent water-solubility initially, precipitated out of solution within minutes. • (2) Because TMS-Br removed some of the zinc, remetalation was attempted with zinc acetate. […] Most (but not all) of the precipitate could be redissolved in concentrated (15 wt %) aqueous NaOH. • (3) When 12b was treated with TMS-Br in the presence of TEA to suppress demetalation,^27 the deprotected porphyrin-diol 11b was not formed until the addition of a protic solvent. During the work-up, 11b formed in quantitative yield, as determined by ^1H NMR spectroscopy and LD-MS [obsd m/z 567, calcd 566 for demetalated (M+H)^+] of the purified sample. • (4) A sample of 12b in a mixture of CDCl3/CD3OD was monitored by ^1H NMR and LD-MS. Within 8 h the formation of porphyrin 11b was almost quantitative (obsd m/z 566, disappearance of phosphate methyl ester singlets). • (5) Basic hydrolysis (H2O/MeOH, NaOH, various concentrations) removed only two of the methyl esters, but none of 11b was formed.
# [2] = Water-solubility of pure porphyrin in distilled water; conditions: thermodynamic from solid; 8-10 mg of pure porphyrin completely dissolved in 300 μL of distilled water; upper limit not determined; read-out: water-solubility (concentration)
# Protocol: Determination of the upper limit of water-solubility was not possible due to the lack of material; however, in each case examined, 8-10 mg of pure porphyrin (14b, 17b, Zn17b, 17a, Zn17a) completely dissolved in 300 μL of distilled water, consistent with a concentration of >20 mM.
# [3] = Stability of aqueous porphyrin solutions (naked eye, absorption spectroscopy); conditions: for precipitation or aggregation of aqueous solutions: naked eye or absorption spectroscopy; for stability of aqueous solutions: room temperature, shielded from the light
# [4] = Solubility in organic solvents
# Source text: Reaction of 11a with dimethyl chlorophosphate in anhydrous pyridine gave no 12a, whereas similar reaction with 11b gave a very low yield of 12b. The poor yields are presumably due to the combination of low solubility and low reactivity on the part of the porphyrin-diol starting materials. We assumed that incorporation of the dimethoxyphosphoryl groups at an earlier stage could provide a more efficient process.
time to almost quantitative formation of porphyrin 11b (loss of phosphate groups) [1] [h],solubility [2] [mM],stability of aqueous solutions [3],Compound,precipitation or aggregation of aqueous solutions [3],solubility in most organic solvents [4]
≤ 8,–,–,"COP(=O)(OC)OCCC(CCOP(=O)(OC)OC)c1c2nc(cc3ccc([n-]3)c(-c3ccc(Br)cc3)c3nc(cc4ccc1[n-]4)C=C3)C=C2.[Zn+2] [12b, Zn(II)-5-(4-Bromophenyl)-15-[1,5-bis(dimethoxyphosphoryloxy)pent-3-yl]porphyrin]",–,–
–,> 20,stable for days,"O=P(O)(O)OCCC(CCOP(=O)(O)O)c1c2nc(cc3ccc([nH]3)c(-c3ccc(Br)cc3)c3nc(cc4ccc1[nH]4)C=C3)C=C2 [14b, 5-(4-Bromophenyl)-15-(1,5-bis[dihydroxyphosphoryloxy)pent-3-yl]porphyrin]",Neither precipitation nor aggregation was observed,–
–,> 20,stable for days,"O=C(O)COc1ccc(-c2c3nc(cc4ccc([nH]4)c(C(CCP(=O)(O)O)CCP(=O)(O)O)c4nc(cc5ccc2[nH]5)C=C4)C=C3)cc1 [17a, 5-(4-(Carboxymethoxy)phenyl)-15-[1,5-bis(dihydroxyphosphoryl)pent-3-yl]porphyrin]",Neither precipitation nor aggregation was observed,–
–,> 20,stable for days,"O=P(O)(O)CCC(CCP(=O)(O)O)c1c2nc(cc3ccc([nH]3)c(-c3ccc(Br)cc3)c3nc(cc4ccc1[nH]4)C=C3)C=C2 [17b, 5-(4-Bromophenyl)-15-[1,5-bis(dihydroxyphosphoryl)pent-3-yl]porphyrin]",Neither precipitation nor aggregation was observed,–
–,–,stable for days,"O=C(O)COc1ccc(-c2c3nc(cc4ccc([n-]4)c(C(CCP(=O)(O)O)CCP(=O)(O)O)c4nc(cc5ccc2[n-]5)C=C4)C=C3)cc1.[Zn+2] [Zn17a, Zn(II)-5-(4-(Carboxymethoxy)phenyl)-15-[1,5-bis(dihydroxyphosphoryl)pent-3-yl]porphyrin]",Neither precipitation nor aggregation was observed,–
–,–,–,"Zn(II)-5-(4-Bromophenyl)-15-(1,5-dihydroxypent-3-yl)porphyrin [11b]",–,only sparingly soluble
–,–,stable for days,"Zn(II)-5-(4-Bromophenyl)-15-[1,5-bis(dihydroxyphosphoryl)pent-3-yl]porphyrin [Zn17b]",Neither precipitation nor aggregation was observed,–
–,–,–,"Zn(II)-5-(4-tert-Butoxycarbonylmethoxyphenyl)-5-(1,5-dihydroxypent-3-yl)-porphyrin [11a]",–,only sparingly soluble
